Source: PubChem BioAssay AID264 (DTP/NCI, 2004)
“And” between values parts separate entries of the source, which are not always exact repeats. Identical values can stand only once. Inconclusive results are not listed.

Test system: nude mice, LX-1 lung xenograft intrarenal, tumor weight T/C
Experiment: NCI In Vivo Anticancer Drug Screen. Data for tumor model Human Lung LX-1 Xenograft (intrarenal inoculation) in NU/NU Swiss (nude) mice
Conditions: endpoint: mean tumor weight change, higher = larger tumour
Summary of the method: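 Antitumor effect is expressed as a ratio: the mean tumor measurement of the drug-treated group relative to that of the vehicle-dosed control group.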

[1] = dose: 300.0 mg/kg/injection, schedule: Q04DX003 (sc), vehicle: Klucel (hydroxypropylcellulose) (HPC)
[2] = dose: 600.0 mg/kg/injection, schedule: Q04DX003 (sc), vehicle: Klucel (hydroxypropylcellulose) (HPC)
[3] = dose: 1200.0 mg/kg/injection, schedule: Q04DX003 (sc), vehicle: Klucel (hydroxypropylcellulose) (HPC)
[4] = dose: 2400.0 mg/kg/injection, schedule: Q04DX003 (sc), vehicle: Klucel (hydroxypropylcellulose) (HPC)
[5] = dose: 150.0 mg/kg/injection, schedule: Q04DX003 (sc), vehicle: Klucel (hydroxypropylcellulose) (HPC)
[6] = dose: 40.0 mg/kg/injection, schedule: Q04DX003 (sc), vehicle: Klucel (hydroxypropylcellulose) (HPC)
[7] = dose: 75.0 mg/kg/injection, schedule: Q04DX003 (sc), vehicle: saline with Tween-80
[8] = dose: 150.0 mg/kg/injection, schedule: Q04DX003 (sc), vehicle: saline with Tween-80
[9] = dose: 300.0 mg/kg/injection, schedule: Q04DX003 (sc), vehicle: saline with Tween-80
[10] = dose: 600.0 mg/kg/injection, schedule: Q04DX003 (sc), vehicle: saline with Tween-80
[11] = dose: 50.0 mg/kg/injection, schedule: Q01DX010 (sc), vehicle: saline with Tween-80
[12] = dose: 100.0 mg/kg/injection, schedule: Q01DX010 (sc), vehicle: saline with Tween-80
[13] = dose: 400.0 mg/kg/injection, schedule: Q01DX010 (sc), vehicle: saline with Tween-80
[14] = dose: 1200.0 mg/kg/injection, schedule: Q04DX003 (sc), vehicle: saline with Tween-80
[15] = dose: 75.0 mg/kg/injection, schedule: Q04DX003 (sc), vehicle: Klucel (hydroxypropylcellulose) (HPC)
[16] = dose: 75.0 mg/kg/injection, schedule: Q04DX003 (sc), vehicle: saline
[17] = dose: 150.0 mg/kg/injection, schedule: Q04DX003 (sc), vehicle: saline
[18] = dose: 2400.0 mg/kg/injection, schedule: Q04DX003 (sc), vehicle: saline with Tween-80

CCCCCC(=O)O[C@]1(C(C)=O)CC[C@H]2[C@@H]3CCC4=CC(=O)CC[C@]4(C)[C@H]3CC[C@@]21C
T/C [1]: 91 % of control | T/C [2]: 112 % of control | T/C [3]: 103 % of control | T/C [4]: 84 % of control

NC(=O)c1ncn(C2OC(CO)C(O)C2O)c1O (stereo unspecified)
T/C [5]: 99 % of control

COC1C(C)OC(OC2CC(C)(O)Cc3cc4c(c(O)c32)C(=O)c2c(O)cc3c(c2C4=O)OC2OC3(C)C(O)C(N(C)C)C2O)C(OC)C1(C)OC (stereo unspecified)
T/C (dose: 5.0 mg/kg/injection, schedule: Q04DX003 (sc), vehicle: Klucel (hydroxypropylcellulose) (HPC)): 118 % of control | T/C (dose: 20.0 mg/kg/injection, schedule: Q04DX003 (sc), vehicle: Klucel (hydroxypropylcellulose) (HPC)): 60 % of control | T/C [6]: 98 % of control

Oc1cc2ccccc2c(-c2c(O)c(O)cc3ccccc23)c1O
T/C [7]: 85 % of control | T/C [8]: 108 % of control | T/C [9]: 42 % of control | T/C [10]: 52 % of control

CSc1nc(=O)[nH]nc1SCc1ccccc1
T/C (dose: 100.0 mg/kg/injection, schedule: Q04DX003 (sc), vehicle: Klucel (hydroxypropylcellulose) (HPC)): 101 % of control | T/C (dose: 200.0 mg/kg/injection, schedule: Q04DX003 (sc), vehicle: Klucel (hydroxypropylcellulose) (HPC)): 93 % of control | T/C (dose: 400.0 mg/kg/injection, schedule: Q04DX003 (sc), vehicle: Klucel (hydroxypropylcellulose) (HPC)): 64 % of control | T/C (dose: 800.0 mg/kg/injection, schedule: Q04DX003 (sc), vehicle: Klucel (hydroxypropylcellulose) (HPC)): 68 % of control

CCOC(=O)Nc1cc2c(c(N)n1)N=C(c1ccc(Cl)cc1Cl)CN2
T/C (dose: 37.5 mg/kg/injection, schedule: Q04DX003 (sc), vehicle: saline with Tween-80): 82 % of control | T/C [7]: 76 % of control | T/C [8]: 64 % of control | T/C [9]: 66 % of control

Cn1c2nc(=O)n(-c3ccccc3)c(=O)c-2nc2c1CCCC2
T/C [7]: 71 % of control | T/C [8]: 101 % of control

CC(=O)OCC1OC(n2cc(CBr)nn2)C(OC(C)=O)C(OC(C)=O)C1OC(C)=O (stereo unspecified)
T/C [11]: 177 % of control | T/C [12]: 101 % of control | T/C [13]: 46 % of control

CC(=O)O[C@@H]1[C@@H](O)C2=C3[C@]4(C)[C@@H]1C(C)(C)C(=O)C[C@@H]4[C@]3(O)[C@H](OC(C)=O)[C@@]1(C[C@@H]1C)C2=O
T/C (dose: 12.5 mg/kg/injection, schedule: Q01DX010 (sc), vehicle: saline with Tween-80): 104 % of control | T/C (dose: 25.0 mg/kg/injection, schedule: Q01DX010 (sc), vehicle: saline with Tween-80): 58 % of control | T/C [11]: 207 % of control

C[Si](C)(CCl)N[Si](C)(C)CCl
T/C [14]: 81 % of control

O=c1s[se]c2ccccc12
T/C [15]: 66 % of control | T/C [5]: 59 % of control

Clc1ccc(C2SC=Cc3ccccc32)cc1 (stereo unspecified)
T/C [1]: 64 % of control | T/C [2]: 47 % of control | T/C [3]: 106 % of control

CC1CN1C(=O)NCCCCCCNC(=O)N1CC1C (stereo unspecified)
T/C [6]: 6 % of control and 23 % of control

Cc1ccc(C2NC(=S)N3C(c4ccc(C)cc4)NC(=S)N23)cc1 (stereo unspecified)
T/C [1]: 64 % of control | T/C [2]: 66 % of control | T/C [3]: 80 % of control | T/C [4]: 65 % of control

CCOC(OCC)C(=O)OCC(=O)[C@]1(O)Cc2c(O)c3c(c(O)c2[C@@H](OC2CC(N)C(O)C(C)O2)C1)C(=O)c1c(OC)cccc1C3=O (stereo partly specified)
T/C (dose: 2.0 mg/kg/injection, schedule: Q01DX010 (sc), vehicle: water): 68 % of control | T/C (dose: 4.0 mg/kg/injection, schedule: Q01DX010 (sc), vehicle: water): 27 % of control

Nc1ccc(Cl)cc1N
T/C (dose: 450.0 mg/kg/injection, schedule: Q04DX003 (sc), vehicle: saline with Tween-80): 115 % of control | T/C (dose: 900.0 mg/kg/injection, schedule: Q04DX003 (sc), vehicle: saline with Tween-80): 92 % of control

O=CC(O)C(O)C(O)C(O)C(=O)O.[NH-]C1CCCCC1[NH-].[Pt+2] (stereo unspecified)
T/C (dose: 9.38 mg/kg/injection, schedule: Q04DX003 (sc), vehicle: suspension in saline): 39 % of control | T/C (dose: 18.75 mg/kg/injection, schedule: Q04DX003 (sc), vehicle: suspension in saline): 46 % of control

O=NN(CCCl)C(=O)NC1[C@H](O)CCC[C@@H]1O (stereo partly specified)
T/C (dose: 5.0 mg/kg/injection, schedule: Q04DX003 (sc), vehicle: saline): 25 % of control and 30 % of control and 48 % of control

C1=CCOCOC1
T/C [11]: 83 % of control | T/C [12]: 105 % of control | T/C (dose: 200.0 mg/kg/injection, schedule: Q01DX010 (sc), vehicle: saline with Tween-80): 81 % of control | T/C [13]: 46 % of control

CS(=O)(=O)OCCCNCCCOS(C)(=O)=O
T/C [16]: 71 % of control

COc1cc2cc(c1Cl)N(C)C(=O)CC(OC(=O)C(C)C)C1(C)OC1C(C)C1CC(O)(NC(=O)O1)C(OC)/C=C/C=C(C)C2 (stereo unspecified)
T/C (dose: 100.0 micrograms/kg/injection, schedule: Q01DX010 (sc), vehicle: saline + alcohol): 19 % of control and 39 % of control | T/C (dose: 200.0 micrograms/kg/injection, schedule: Q01DX010 (sc), vehicle: saline + alcohol): 44 % of control

COc1cc2cc[n+](C)c(Cc3ccccc3)c2cc1OC
T/C (dose: 37.5 mg/kg/injection, schedule: Q04DX003 (sc), vehicle: Klucel (hydroxypropylcellulose) (HPC)): 88 % of control | T/C [15]: 115 % of control

Cc1ccccc1CN1C2=NCCN2C(=O)C2=C1CCN(S(=O)(=O)c1ccc(Cl)c(S(N)(=O)=O)c1)C2
T/C [17]: 77 % of control | T/C (dose: 300.0 mg/kg/injection, schedule: Q04DX003 (sc), vehicle: saline): 96 % of control | T/C (dose: 600.0 mg/kg/injection, schedule: Q04DX003 (sc), vehicle: saline): 155 % of control

CC(C)=CCNc1ncnc2c1ncn2C1OC(CO)C(O)C1O (stereo unspecified)
T/C (dose: 200.0 mg/kg/injection, schedule: Q04DX003 (sc), vehicle: suspension in saline): 93 % of control | T/C (dose: 400.0 mg/kg/injection, schedule: Q04DX003 (sc), vehicle: suspension in saline): 112 % of control | T/C (dose: 800.0 mg/kg/injection, schedule: Q04DX003 (sc), vehicle: suspension in saline): 88 % of control

O=C(Nc1cccc2c(OC(=O)C(Cl)Cl)c(N=Nc3ccc(S(=O)(=O)Nc4nccs4)cc3)cc(N=Nc3ccc(S(=O)(=O)Nc4nccs4)cc3)c12)C(Cl)Cl (tested in a mixture with another compound)
T/C (dose: 25.0 mg/kg/injection, schedule: Q04DX003 (sc), vehicle: saline with Tween-80): 104 % of control | T/C (dose: 50.0 mg/kg/injection, schedule: Q04DX003 (sc), vehicle: saline with Tween-80): 92 % of control | T/C (dose: 100.0 mg/kg/injection, schedule: Q04DX003 (sc), vehicle: saline with Tween-80): 116 % of control | T/C [9]: 90 % of control | T/C [10]: 120 % of control | T/C [14]: 83 % of control | T/C [18]: 120 % of control

CN(C)CCN1C(=O)c2cccc3cc([N+](=O)[O-])cc(c23)C1=O
T/C (dose: 9.0 mg/kg/injection, schedule: Q04DX003 (sc), vehicle: saline with Tween-80): 94 % of control | T/C (dose: 18.0 mg/kg/injection, schedule: Q04DX003 (sc), vehicle: saline with Tween-80): 108 % of control | T/C (dose: 36.0 mg/kg/injection, schedule: Q04DX003 (sc), vehicle: saline with Tween-80): 95 % of control

O=C1C(O)=C(c2ccccc2)C(=O)C(O)=C1c1ccccc1
T/C [16]: 80 % of control | T/C [17]: 71 % of control

S=c1[nH]cc2cnccn12
T/C [9]: 151 % of control | T/C [14]: 83 % of control | T/C [18]: 94 % of control

C=CCNc1ccc(C)cc1
T/C (dose: 12.5 mg/kg/injection, schedule: Q01DX010 (sc), vehicle: Klucel (hydroxypropylcellulose) (HPC)): 98 % of control | T/C (dose: 25.0 mg/kg/injection, schedule: Q01DX010 (sc), vehicle: Klucel (hydroxypropylcellulose) (HPC)): 171 % of control | T/C (dose: 100.0 mg/kg/injection, schedule: Q01DX010 (sc), vehicle: Klucel (hydroxypropylcellulose) (HPC)): 107 % of control | T/C (dose: 200.0 mg/kg/injection, schedule: Q01DX010 (sc), vehicle: Klucel (hydroxypropylcellulose) (HPC)): 42 % of control | T/C (dose: 400.0 mg/kg/injection, schedule: Q01DX010 (sc), vehicle: Klucel (hydroxypropylcellulose) (HPC)): 72 % of control
